This is an account of results in publication PMC11164105, “Exploring of N-phthalimide-linked 1,2,3-triazole analogues with promising -anti-SARS-CoV-2 activity: synthesis, biological screening, and molecular modelling studies” (Journal of Enzyme Inhibition and Medicinal Chemistry, 2024).

Series [1] relates to SARS-CoV-2 isolate EGY/WAT-2 VACCERA. Briefly: microbe, parasite or virus in culture. The format is cell-based. The note with it: for (API) Antiviral potency index: ratio of the inhibition % of the tested compound to that of Remdesivir at 10 μM, 1 = identical effect; for inhibition at 10 µM: Severe acute respiratory syndrome coronavirus 2, Vero C1008, 10 uM.
Another series deals with T1, SARS-CoV-2 Mpro (Severe acute respiratory syndrome coronavirus 2, UniProt P0DTD1).
T1 construct: purchased BPS Bioscience
The series can be described thus: SARS-CoV-2 Mpro inhibition assay (BPS Bioscience, FRET peptide). The series is classed as biochemical.

The subject of another series is COVID-19. Further details: method as in PMID 34914868. The note with it: adult patients with mild-to-moderate COVID-19, not hospitalized, phase-3; cited from earlier work.
The subject of the next series is Vero E6 cells. The series can be described thus: Cytotoxicity evaluation using MTT viability assay. The following applies: Vero E6 cytotoxicity IC50 compared with the antiviral activity maximum concentration (10 mM printed in footnote, 10 uM in text). (Formazan colour is commonly taken as a measure of viable cells.)
The subject of series [2] is SARS-CoV-2. The arrangement: method as in PMID 34750163. The note with it: ritonavir and Nirmatrelvir used in conjunction; cited from earlier work.
Series [3] has as its system SARS-CoV-2. Further details: method as in PMID 36986562. The note with it: 10 µM, Vero 6 cells; cited from earlier work.
For the next series, the system named is main protease Mpro. Further details: method as in PMID 36986562. The note with it: read-out: IC50 of main protease Mpro inhibition; cited from earlier work.
The mark [4] stands for this setting: Severe acute respiratory syndrome coronavirus 2, Vero C1008, 1 uM, infected Vero E6 cells, read-out: % of inhibition of SARS CoV-2.
Setting [5] is: in vitro enzyme assay, read-out: IC50 against SARS-CoV-2 Mpro.

Where two headings read alike, the source gives them in different places.

The term melting point denotes the temperature of the solid-liquid transition. Broadly, the inhibition is the change of the read-out against control, counted positive when it falls. What is called IC50 is the concentration at which inhibition is half-maximal. By EC50 is commonly meant the concentration needed to bring the measured effect to its halfway point.

Regarding `O=C(Cn1cc(COc2ccc(/C=N/N3C(=O)c4ccccc4C3=O)cc2)nn1)NCc1ccc(Cl)cc1` [Compound 6h, (E)-N-(4-chlorobenzyl)-2–(4-((4-(((1,3-dioxoisoindolin-2-yl)imino)methyl)phenoxy)methyl)-1H-1,2,3-triazol-1-yl)acetamide], the melting point was in the range of 208 to 209 °C. Moreover, the “(API) Antiviral potency index” value in series [1] worked out at 0.95.

As for `O=C1c2ccccc2C(=O)N1/N=C/c1ccc(OCc2cn(-c3ccccc3F)nn2)cc1` [Compound 8e, (E)-2-((4-((1–(2-fluorophenyl)-1H-1,2,3-triazol-4-yl)methoxy)benzylidene)amino)isoindoline-1,3-dione], the melting point was in the range of 248 to 249 °C. The inhibition at 1 µM in series [1] (setting [4]) worked out at 83.6%. Moreover, the “(API) Antiviral potency index” value in series [1] is reported as 0.98.

`O=C1c2ccccc2C(=O)N1/N=C/c1ccc(OCc2cn(-c3ccc(Cl)c(Cl)c3)nn2)cc1` [Compound 8g, (E)-2-((4-((1–(3,4-dichlorophenyl)-1H-1,2,3-triazol-4-yl)methoxy)benzylidene)amino)isoindoline-1,3-dione]: the “(API) Antiviral potency index” value in series [1] is 0.96.

In the case of `O=C(Cn1cc(COc2ccc(/C=N/N3C(=O)c4ccccc4C3=O)cc2)nn1)NCc1ccc(F)cc1` [Compound 6g, (E)-2–(4-((4-(((1,3-dioxoisoindolin-2-yl)imino)methyl)phenoxy)methyl)-1H-1,2,3-triazol-1-yl)-N-(4-fluorobenzyl) acetamide], at 10 µM the inhibition in series [1] (infected Vero E6 cells) was 94%. Further, the “(API) Antiviral potency index” value in series [1] is 0.97. In addition, on SARS-CoV-2 Mpro (setting [5]), the IC50 was found to be 90.1 ± 4.59 µM.

As to `CC(C)C(=O)OC[C@H]1O[C@@H](n2ccc(NO)nc2=O)[C@H](O)[C@@H]1O` [Moldupiravir], the “reduction of the risk of death or hospitalisation” value in the series on COVID-19 is recorded as 30%.

Take `CC(=O)OC[C@@H]1O[C@H](n2cc(COc3ccc(/C=N/N4C(=O)c5ccccc5C4=O)cc3)nn2)[C@@H](OC(C)=O)[C@H](OC(C)=O)[C@@H]1OC(C)=O` [Compound 10b, (2S,3R,4R,5S,6S)-2-(acetoxymethyl)-6–(4-((4-((E)-((1,3-dioxoisoindolin-2-yl)imino)methyl)phenoxy)methyl)-1H-1,2,3-triazol-1-yl)tetrahydro-2H-pyran-3,4,5-triyl triacetate]: the “(API) Antiviral potency index” value in series [1] is 0.90.

Regarding `Cc1ccc(CNC(=O)Cn2cc(COc3ccc(/C=N/N4C(=O)c5ccccc5C4=O)cc3)nn2)cc1` [Compound 6f, (E)-2–(4-((4-(((1,3-dioxoisoindolin-2-yl)imino)methyl)phenoxy)methyl)-1H-1,2,3-triazol-1-yl)-N-(4-methylbenzyl) acetamide], the melting point lay within 201 to 202 °C. In addition, the “(API) Antiviral potency index” value in series [1] worked out at 0.92.

For the compound `CC(=O)OC[C@@H]1O[C@H](n2cc(COc3ccc(/C=N/N4C(=O)c5ccccc5C4=O)cc3)nn2)[C@@H](OC(C)=O)[C@H](OC(C)=O)[C@H]1OC(C)=O` [Compound 10a, (2S,3S,4R,5S,6S)-2-(acetoxymethyl)-6–(4-((4-((E)-((1,3-dioxoisoindolin-2-yl)imino)methyl)phenoxy)methyl)-1H-1,2,3-triazol-1-yl)tetrahydro-2H-pyran-3,4,5-triyl triacetate], the melting point lay within 166 to 167 °C. Besides, the “(API) Antiviral potency index” value in series [1] worked out at 0.92. Besides, on SARS-CoV-2 Mpro (setting [5]), the IC50 stood at 1090 ± 55.5 µM.

Regarding `O=C(Cn1cc(COc2ccc(/C=N/N3C(=O)c4ccccc4C3=O)cc2)nn1)Nc1ccc(F)cc1` [Compound 6e, (E)-2–(4-((4-(((1,3-dioxoisoindolin-2-yl)imino)methyl)phenoxy)methyl)-1H-1,2,3-triazol-1-yl)-N-(4-fluorophenyl) acetamide], the melting point lay in the range of 219 to 220 °C. Moreover, the “(API) Antiviral potency index” value in series [1] is 0.96.

`O=C(O)c1ccc(-n2cc(COc3ccc(/C=N/N4C(=O)c5ccccc5C4=O)cc3)nn2)cc1` [Compound 8b, (E)-4–(4-((4-(((1,3-dioxoisoindolin-2-yl)imino)methyl)phenoxy)methyl)-1H-1,2,3-triazol-1-yl)benzoic acid]: the melting point was 287 to 288 °C. Moreover, the “(API) Antiviral potency index” value in series [1] turned out to be 0.91.

For “(E)-2-((4-((1–(4-nitrophenyl)-1H-1,2,3-triazol-4-yl)methoxy)benzylidene)amino)isoindoline-1,3-dione [Compound 8c]”, the “(API) Antiviral potency index” value in series [1] is on record as 0.96. Besides, the “CT/A Cytotoxicity/activity parameter” value in the series on Vero E6 cells is on record as 8.62.

In the case of `O=C(Cn1cc(COc2ccc(/C=N/N3C(=O)c4ccccc4C3=O)cc2)nn1)Nc1ccc(I)cc1F` [Compound 6c, (E)-2–(4-((4-(((1,3-dioxoisoindolin-2-yl)imino)methyl)phenoxy)methyl)-1H-1,2,3-triazol-1-yl)-N-(2-fluoro-4-iodophenyl)acetamide], the melting point lay in the range of 228 to 229 °C. Besides, the “(API) Antiviral potency index” value in series [1] is recorded as 0.96.

Consider `Cc1cccc(C)c1OCC(=O)N[C@@H](Cc1ccccc1)[C@@H](O)C[C@H](Cc1ccccc1)NC(=O)[C@H](C(C)C)N1CCCNC1=O` [Lopinavir, reference compound], for which, on SARS-CoV-2 Mpro, inhibition was half-maximal at 149 ± 7.48 µM (IC50).

For the compound `CC(C)(C)[C@H](NC(=O)C(F)(F)F)C(=O)N1C[C@H]2[C@@H]([C@H]1C(=O)N[C@H](C#N)C[C@@H]1CCNC1=O)C2(C)C` [Nirmatrelvir], the “decrease in hospitalisation or mortality” value with SARS-CoV-2 [2] is recorded as 89%.

As to `O=C(Cn1cc(COc2ccc(/C=N/N3C(=O)c4ccccc4C3=O)cc2)nn1)Nc1ccccc1I` [Compound 6b, (E)-2–(4-((4-(((1,3-dioxoisoindolin-2-yl)imino)methyl)phenoxy)methyl)-1H-1,2,3-triazol-1-yl)-N-(2-iodophenyl) acetamide], the melting point fell in the range of 213 to 214 °C. The “(API) Antiviral potency index” value in series [1] came to 0.97.

As to `CC1=NN(c2ccc(Cl)cc2)C(=O)/C1=C\c1ccc(OCc2cn(CC(=O)Nc3ccc(C(=O)O)cc3)nn2)cc1` [Compound 11], the “inhibition of SARS-CoV-2 growth” value in the series with SARS-CoV-2 [3] is 63.39 ± 0.48%. Besides, the IC50 in the series with main protease Mpro is 3.16 ± 1.2 µM.

Regarding `CCOC(=O)c1ccc(-n2cc(COc3ccc(/C=N/N4C(=O)c5ccccc5C4=O)cc3)nn2)cc1` [Compound 8f, ethyl (E)-4–(4-((4-(((1,3-dioxoisoindolin-2-yl)imino)methyl)phenoxy)methyl)-1H-1,2,3-triazol-1-yl)benzoate], the melting point lay in the range of 224 to 225 °C. In series [1], the “(API) Antiviral potency index” value stood at 0.91.

For the compound `O=C1c2ccccc2C(=O)N1/N=C/c1ccc(OCc2cn(-c3ccc(F)cc3)nn2)cc1` [Compound 8a, (E)-2-((4-((1–(4-fluorophenyl)-1H-1,2,3-triazol-4-yl)methoxy)benzylidene)amino) isoindoline-1,3-dione], the melting point fell in the range of 238 to 239 °C. The “(API) Antiviral potency index” value in series [1] came out at 0.96.

Regarding `O=C(Cn1cc(COc2ccc(/C=N/N3C(=O)c4ccccc4C3=O)cc2)nn1)Nc1ccc([N+](=O)[O-])cc1` [Compound 6d, (E)-2–(4-((4-(((1,3-dioxoisoindolin-2-yl)imino)methyl)phenoxy)methyl)-1H-1,2,3-triazol-1-yl)-N-(4-nitrophenyl)acetamide], the melting point was in the range of 242 to 243 °C. Also, the “(API) Antiviral potency index” value in series [1] came to 0.98.

Take “(E)-2-((4-((1–(3-fluoro-4-methylphenyl)-1H-1,2,3-triazol-4-yl)methoxy)benzylidene)amino) Isoindoline-1,3-dione [Compound 8d]”: the “(API) Antiviral potency index” value in series [1] is 0.92.

The compound `O=C(Cn1cc(COc2ccc(/C=N/N3C(=O)c4ccccc4C3=O)cc2)nn1)Nc1ccc(C(=O)O)cc1` [Compound 6a, (E)-4–(2-(4-((4-(((1,3-dioxoisoindolin-2-yl)imino)methyl)phenoxy)methyl)-1H-1,2,3-triazol-1-yl)acetamido)benzoic acid] came in with a melting point of 264 to 265 °C. Moreover, in series [1] (10 uM, infected Vero E6 cells), the “% of inhibition of SARS CoV-2” value came to 94.96%. In addition, the inhibition at 0.01 µM in series [1] (Severe acute respiratory syndrome coronavirus 2, Vero C1008, 0.01 uM) is approximately 40%. Also, in series [1] (setting [4]), the inhibition at 1 µM amounted to 87.8%. This compound also returned an inhibition at 10 µM in series [1] (infected Vero E6 cells) of 94%. Besides, the EC50 in series [1] (Severe acute respiratory syndrome coronavirus 2, Vero C1008, dose-response at five concentrations starting from 10 uM, read-out: EC50 of virus inhibition) was 0.038 µM. Moreover, the “(API) Antiviral potency index” value in series [1] is reported as 0.98. The IC50 on SARS-CoV-2 Mpro (setting [5]) amounted to 113 ± 5.75 µM.

For `CCC(CC)COC(=O)[C@H](C)N[P@](=O)(OC[C@H]1O[C@@](C#N)(c2ccc3c(N)ncnn23)[C@H](O)[C@@H]1O)Oc1ccccc1` [Remdesivir, reference compound], the inhibition at 1 µM in series [1] (Severe acute respiratory syndrome coronavirus 2, Vero C1008, read-out: % of inhibition of SARS CoV-2) was determined as 92.7%. Besides, the EC50 in series [1] (Severe acute respiratory syndrome coronavirus 2, Vero C1008, read-out: EC50 of virus inhibition) was 0.029 µM. For the same compound, in the series on Vero E6 cells, the “CT/A Cytotoxicity/activity parameter” value is recorded as 4.31.

In turn, `CC(=O)c1ccc(-n2cc(COc3ccc(/C=N/N4C(=O)c5ccccc5C4=O)cc3)nn2)cc1` [Compound 8h, (E)-2-((4-((1–(4-acetylphenyl)-1H-1,2,3-triazol-4-yl)methoxy)benzylidene)amino)isoindoline-1,3-dione] had a melting point of 275 to 276 °C. In series [1], the “(API) Antiviral potency index” value came to 0.96.
